In PMC10892984, “Novel Antineoplastic Inducers of Mitochondrial Apoptosis in Human Cancer Cells” (Molecules, 2024):

Key:
HIV-1LAI = HIV-1LAI replication reverse transcriptase assay in primary PBM cells; format: cell-based, human immunodeficiency virus type 1
Description: (§1) The cytotoxicity and human immunodeficiency virus type 1 (HIV-1) strain LAI replication assays were performed in freshly explanted primary human peripheral blood mononuclear cells (PBM cells) according to published procedures. The assays were conducted at least in triplicate and treated statistically (if possible). HIV-1LAI (= HIV-1BRU = LAV-1) was assayed in primary human peripheral blood lymphocyte (PBL) cells in the presence of a drug being evaluated. The parameter for antiviral activity was a reduction in reverse transcriptase (RT) activity in the cell supernatant after Triton X–100-mediated lysis of released virions, as measured using [5α-^3H]dTTP (5α-tritiated thymidine 5′-triphosphate) incorporation into poly(rA)•poly(dT) directed by the primed RNA template poly(rA)•oligo(dT). […] The detailed assay methodology was reported by Schinazi et al. as based on an older assay system of Spira et al.. The experiments were conducted in triplicate and treated statistically using regression curve analysis (r^2 coefficient of determination). The RT inhibitor AZT (zidovudine, 3′-azido-3′-deoxythymidine; RETROVIR™) served as a positive control. Cytotoxicity on PBL and the other cells (CCRF−CEM, Vero) exerted by the test compounds was determined as described by Stuyver et al. by application of the CellTiter 96® AQueous One Solution Cell Proliferation Assay (Promega Corp., Madison, WI, USA). Briefly, the phenazine ethosulfate (PES)-coupled reduction of the tetrazolium salt 3-(4,5-dimethylthiazol-2-yl)-5-(3-carboxymethoxyphenyl)-2-(4-sulfophenyl)-2H-tetrazolium (MTS) to a purple, water-soluble formazan by living, undamaged cells was measured.

[1] = Cytotoxicity (CellTiter 96 AQueous One, MTS); format: cell-based; conditions: human; PBM cells
Description: (§2) The cytotoxicity and human immunodeficiency virus type 1 (HIV-1) strain LAI replication assays were performed in freshly explanted primary human peripheral blood mononuclear cells (PBM cells) according to published procedures. The assays were conducted at least in triplicate and treated statistically (if possible). HIV-1LAI (= HIV-1BRU = LAV-1) was assayed in primary human peripheral blood lymphocyte (PBL) cells in the presence of a drug being evaluated. The parameter for antiviral activity was a reduction in reverse transcriptase (RT) activity in the cell supernatant after Triton X–100-mediated lysis of released virions, as measured using [5α-^3H]dTTP (5α-tritiated thymidine 5′-triphosphate) incorporation into poly(rA)•poly(dT) directed by the primed RNA template poly(rA)•oligo(dT). […] Cytotoxicity on PBL and the other cells (CCRF−CEM, Vero) exerted by the test compounds was determined as described by Stuyver et al. by application of the CellTiter 96® AQueous One Solution Cell Proliferation Assay (Promega Corp., Madison, WI, USA). Briefly, the phenazine ethosulfate (PES)-coupled reduction of the tetrazolium salt 3-(4,5-dimethylthiazol-2-yl)-5-(3-carboxymethoxyphenyl)-2-(4-sulfophenyl)-2H-tetrazolium (MTS) to a purple, water-soluble formazan by living, undamaged cells was measured.

[2] = Cytotoxicity (CellTiter 96 AQueous One, MTS); format: cell-based, human; conditions: human; CCRF−CEM cells
Description: as §1

[3] = Cytotoxicity (CellTiter 96 AQueous One, MTS); format: cell-based, African green monkey (grivet) Chlorocebus aethiops; conditions: African green monkey (Chlorocebus aethiops), Vero cells
Description: as §2

Cc1cn([C@H]2C[C@H](N=[N+]=[N-])[C@@H](CO)O2)c(=O)[nH]c1=O [AZT, 3′-azido-3′-deoxythymidine, reference compound]
EC50 (HIV-1LAI; Human immunodeficiency virus 1, PBMC, primary human PBM cells, reverse transcriptase activity in supernatant, read-out: Anti-HIV-1LAI activity EC50): 0.0044 ± 0.0018 µM
EC90 (HIV-1LAI; Human immunodeficiency virus 1, PBMC, primary human PBM cells, reverse transcriptase activity in supernatant, read-out: Anti-HIV-1LAI activity EC90): 0.031 ± 0.015 µM
SI50, selectivity index CC50/EC50 (HIV-1LAI; PBM cells): >22,727
CC50 [1]: > 100 µM
CC50 [2]: 14.3 µM
CC50 [3]: 56 µM
